Read-outs that look alike come from different tables or passages of the source.
How the values were obtained:
[1] = tested on: NZOV11 human ovarian cell line; assay: restoration of p53 function: G1-phase arrest after irradiation plus paclitaxel, flow cytometry; type: cell-based; conditions: 9 Gray plus 200 nM paclitaxel, 24 hours; for AC50: NZOV11, p53 mutated at position 248, G1 proportion restored to (a+b)/2, read-out: AC-50% (concentration of drug that restores the G1-phase proportion of the cultured cells); for Activity: NZOV11, p53 mutated at position 248 (arginine to glutamine)
From the text: Description of the in vitro assay: This protocol employs a novel assay that was used to measure the restoration of one of the principal p53 functions, that of regulating entry into S-phase (DNA replication) of the cell division cycle. Without being bound to any specific understanding, it is thought that these compounds may act to restore the known ability of p53 to induce cell cycle arrest in the G1-phase of the cell division cycle through induction of the p21^WAF1 protein in response to DNA damage (Levine. Cell 1997, 88, 323-31). Logarithmic phase cultures of tumour cell lines are irradiated in the presence of an inhibitor of cell division (to prevent the generation of G1-phase cells by cell division), and then allowed to grow for approximately one cell division time. If p53 function is present it will inhibit the progression of cells from the G1-phase to the S-phase of the cell division cycle, as a consequence of induction of the p21^WAF1 protein. If p53 function is absent there will be little or no cells in the G1-phase of the cell division cycle at the end of the incubation. […] The ability of an individual drug to restore p53 function is therefore evaluated against a positive control of non-irradiated cells and a negative control of cells that have been treated with a combination of radiation and a mitotic inhibitor.
Logarithmic phase cultures of tumour cell lines are plated in insulin-transferrin-selenite growth medium on 100 mm plates (10 ml) at a density of 10^4 cells/ml, using the standard cell culture conditions that are established in this laboratory (Marshall et al., Oncol Res 1994, 5, 301-9). The test compound is added to some cultures at a range of concentrations up to 20 μM. The anticancer drug paclitaxel is used as an inhibitor of cell division and is added to some cultures at a concentration of 200 nM. Cultures are irradiated where indicated at a dose of 9 Gray. Following irradiation, cultures are incubated at 37° C. for 24 hours, the cells harvested, washed once and fixed overnight in 100% methanol at −20° C. at a density of 5×10^5 cells/ml. Cells are rehydrated by washing in phosphate buffered saline with 2% foetal bovine serum, then incubated with RNAase A (0.25 mg/ml) at 37° C. for 30 min. Cells are then washed and resuspended in phosphate buffered saline containing 0.1 mM EDTA and 25 μg/ml propidium iodide. Cycle analysis (red fluorescence) is performed using a Becton Dickinson (Mountain View, Calif.) FACScan flow cytometer. Cellular DNA content profiles are analyzed using Modfit software (Verity Software House, Inc.) to provide estimates of the proportions of G1-, S- and G2/M-phase cells, and of other cellular material. By comparing the effects of irradiation and addition of paclitaxel separately, the assay provides evidence of non-specific inhibition of cell growth from changes in cell number, cell cycle distribution, and production of cellular debris.
Using cell cultures that have been both irradiated and treated with paclitaxel, the proportion of cells in G1-phase is plotted against the concentration of added test compound. Depending on the cell line, the proportion of G1-phase cells in the absence of added compound is generally less than 5% (defined as a). […] The 50%-activating concentration (AC-50%) of the test compound is defined as the concentration that restores the G1-phase proportion of the cultured cells to a value of (a+b)/2.
The NZOV11 human ovarian cell line, previously developed in this laboratory according to methods that have previously been published (Baguley B C et al., Eur J Cancer 1998, 34, 1086), was used in these studies to compare the activity of each of the drugs.

[2] = tested on: DLD-1 colon carcinoma (mutated at p53 position 241); conditions: DLD-1 colon carcinoma cells in nude mice; cited from earlier work
[3] = tested on: Saos-2 osteosarcoma cells; conditions: cited from earlier work
[4] = tested on: A375.S2 melanoma (mutated at p53 position 249); conditions: A375.S2 melanoma cells in nude mice; cited from earlier work
[5] = background statement; cited from earlier work
[6] = tested on: other cell lines with mutations in other parts of the p53 protein; assay: restoration of p53 function in other cell lines with other p53 mutations; type: cell-based; conditions: a number of other cell lines with mutations in other parts of the p53 protein
[7] = plasma concentrations after a single intraperitoneal dose; type: in vivo; conditions: C57Bl mice, single intraperitoneal 100 mg/kg, 1, 2 and 4 hours, FIG. 1
Protocol: Illustrates the in vivo plasma concentrations of compound 3 over time following a single intraperitoneal administration (100 mg/kg) to C57Bl mice.
(§1) Pharmacological studies in mice: A further consideration in this project is whether effective plasma concentrations can be achieved in vivo without significant side-effects. C57Bl mice were maintained under standard conditions in accordance with institutional ethical guidelines. The maximum tolerated intraperitoneal single dose of compound 3 was determined by administering different doses of drug to mice and found to be 100 mg/kg. […] An effective analytical procedure for the determination of concentrations of 3 in mouse plasma was developed, using high performance liquid chromatography and detection by ion trap mass spectrometry. The method is broadly applicable to compounds in the series. Blood samples were obtained under terminal anesthesia either before or at 1, 2 and 4 hours after a single intraperitoneal dose of 100 mg/kg. Plasma was prepared and analyzed using the method developed above.

[8] = tested on: NZM4 human tumour xenografts; assay: growth of NZM4 human tumour xenografts in immunodeficient (rag 1) mice; type: in vivo
Protocol: Illustrates the growth curves for immunodeficient mice with NZM4 human tumour xenografts. Mice were either untreated (closed circles), treated with 2 Gray radiation alone (open circles) or treated with radiation combined with compound 3 (100 mg/kg per dose).
In vivo estimation of ability to restore p53 function: A further consideration in this project is to determine whether members of this series have the ability to inhibit the growth of human cell lines that contain mutant p53 protein. This consideration was addressed with the use of compound 3, for which in vitro evidence has been obtained for ability to restore p53 function (Table 2) and for which pharmacological evidence has been obtained for biologically relevant plasma concentrations in vivo in the absence of significant side-effects (FIG. 1). Immunodeficient (rag 1) mice were maintained under standard conditions in accordance with institutional ethical guidelines. Cells from the NZM4 cell line (Marshall E S et al., Eur J Cancer 1994; 30A: 1370-1376) were grown in culture and harvested. Mice were injected subcutaneously with 10^7 cells and tumours allowed to grow to a diameter of approximately 5 mm. Mice received whole-body irradiation of 2 Gray and were then administered compound 3 by intraperitoneal injection immediately after, and 1 and 2 days following, irradiation. […] Control animals received no treatment or were irradiated in the absence of drug administration.
Tumour growth was recorded three times weekly by measuring the minor and major dimensions of the tumour and tumour volumes were calculated as 0.52 times (minor dimension)^2 times (major dimension). Tumour volumes were normalized to the initial volume and plotted versus time. FIG. 2 illustrates the growth curves for immunodeficient mice with NZM4 human tumour xenografts. Mice were either untreated (closed circles), treated with 2 Gray radiation alone (open circles) or treated with radiation combined with compound 3 (100 mg/kg per dose). […]

C57Bl mice = assay: maximum tolerated intraperitoneal single dose and signs of toxicity in mice; type: in vivo
Protocol: as §1

Q: Which AC50 ([1]; Homo sapiens) does the source give for `CN(C)CCCNc1cc(-c2cc3ccccc3o2)nc2ccccc12.Cl.Cl` [Compound 80, N^1-[2-(1-benzofuran-2-yl)-4-quinolinyl]-N^3,N^3-dimethyl-1,3-propanediamine dihydrochloride] here?
A: Its AC50 is 15 µM.

Q: And the Activity [1]?
A: Its Activity is “Active”.

Q: Which results are given for `CN(C)CCCNc1nc(-c2cc3ccccc3o2)nc2cc(C(F)(F)F)ccc12.Cl.Cl` [Compound 35, N^1-[2-(1-Benzofuran-2-yl)-7-(trifluoromethyl)-4-quinazolinyl]-N^3,N^3-dimethyl-1,3-propanediamine dihydrochloride]?
A: AC50 ([1]; Homo sapiens): 3.4 µM; Activity [1]: Active

Q: Which AC50 [1] does the source give for `CN(C)CCCNc1nc(-c2cc3ccccc3o2)nc2ccc(N)cc12.Cl.Cl` [Compound 30, N^1-[2-(1-Benzofuran-2-yl)-N^4-[3-(dimethylamino)propyl]-4,6-quinazolinediaminedihydrochloride] here?
A: The AC50 was 9.5 µM.

Q: Which results are given for `Cc1cccc2c(NCCCN(C)C)nc(-c3cc4ccccc4o3)nc12.Cl.Cl` [Compound 45, N^1-[2-(1-Benzofuran-2-yl)-8-methyl-4-quinazolinyl]-N^3,N^3-dimethyl-1,3-propanediamine dihydrochloride]?
A: AC50 ([1]; Homo sapiens): 5.8 µM; Activity [1]: Active

Q: For `COc1ccc(/C=C/c2nc(NCCCN(C)C)c3ccccc3n2)cc1` [(i)], which “suppression of tumour growth” value [2] is on record?
A: The value was “able to suppress the growth”.

Q: And the “ability of mutant p53 protein to induce the cellular p21 gene” value ([3]; Saos-2 osteosarcoma cells)?
A: Its value is “restored the ability of mutant p53 protein to induce the cellular p21 gene”.

Q: What about the potency ([3]; background statement, no test named) of the same molecule?
A: The potency was “not very potent”.

Q: What about the “suppression of tumour growth” value [4] of the same molecule?
A: Its value is “able to suppress the growth”.

Q: What about the chemical stability [5] of the same molecule?
A: The chemical stability was “chemically unstable”.

Q: For `CN(C)CCCNc1nc(-c2cc3ccccc3o2)nc2ccccc12.Cl.Cl` [Compound 3, N^1-[2-(1-benzofuran-2-yl)-4-quinazolinyl]-N^3,N^3-dimethyl-1,3-propanediamine dihydrochloride], which “ability to restore p53 function” value [6] is on record?
A: Its value is “able to restore p53 function”.

Q: What about the achieved plasma concentrations [7] of the same molecule?
A: Its achieved plasma concentrations is “comparable to the AC-50% value”.

Q: And the “time to reach three times the initial tumour volume” value ([8]; 2 Gray radiation together with compound, 100 mg/kg per dose intraperitoneal on days 0, 1 and 2 after irradiation)?
A: Its value is 17 days.

Q: And the signs of toxicity ([8]; rag 1 mice, 2 Gray whole-body irradiation plus intraperitoneal compound immediately after and 1 and 2 days after)?
A: Its signs of toxicity is “No signs of toxicity”.

Q: And the “tumour growth rate with drug alone compared with mice not treated with drug” value ([8]; rag1 mice, drug alone at the same schedule, no irradiation)?
A: The value was “identical rate”.

Q: What about the AC50 ([1]; Homo sapiens) of the same molecule?
A: Its AC50 is 8.5 µM.

Q: And the Activity [1]?
A: Its Activity is “Active”.

Q: What about the “maximum tolerated intraperitoneal single dose” value (C57Bl mice; single intraperitoneal dose) of the same molecule?
A: The value was 100 mg/kg.

Q: What about the “signs of toxicity (weight loss, ruffling of fur, behavioral changes)” value (C57Bl mice; single intraperitoneal dose of 100 mg/kg) of the same molecule?
A: The value was “No signs of toxicity”.

Q: For `Cc1ccc2c(N(C)CCC(C)N)nc(-c3cc4ccccc4o3)nc2c1C.Cl.Cl` (centres unmarked) [Compound 58, N^1-[2-(1-Benzofuran-2-yl)-7,8-dimethyl-4-quinazolinyl]-3,N-dimethyl-1,3-propanediamine dihydrochloride], which AC50 ([1]; Homo sapiens) is on record?
A: The AC50 was 2.7 µM.

Q: What about the Activity [1] of the same molecule?
A: Its Activity is “Active”.

Q: What does the source list for `CN(C)CCCNc1nc(-c2cc3ccccc3o2)nc2ccc([N+](=O)[O-])cc12` [Compound 29, N^1-[2-(1-Benzofuran-2-yl)-6-nitro-4-quinazolinyl]-N^3,N^3-dimethyl-1,3-propanediamine]?
A: AC50 ([1]; Homo sapiens): 12 µM; Activity [1]: Active

Q: What does the source list for `CN(C)CCCNc1nc(-c2cc3ccccc3s2)nc2ccccc12.Cl.Cl` [Compound 75, N^1-[2-(1-Benzothien-2-yl)-4-quinazolinyl]-N^3,N^3-dimethyl-1,3-propanediamine dihydrochloride]?
A: AC50 ([1]; Homo sapiens): 8 µM; Activity [1]: Active

Q: Which AC50 ([1]; Homo sapiens) does the source give for `Cc1ccc2c(NCCC3CCCN3C)nc(-c3cc4ccccc4o3)nc2c1C.Cl.Cl` (centres unmarked) [Compound 79, 2-(1-Benzofuran-2-yl)-7,8-dimethyl-N-[2-(1-methyl-2-pyrrolidinyl)ethyl]-4-quinazolinamine dihydrochloride] here?
A: The AC50 was 7.5 µM.

Q: What about the Activity [1] of the same molecule?
A: Its Activity is “Active”.

Q: Which Activity [1] does the source give for `CN(C)CCCNc1nc(-c2cc3ccccc3o2)nc2ccc(N)cc12.Cl.Cl` [Compound 30] here?
A: The Activity was “Active”.

Q: For `Cc1c(-c2nc(NCCCN(C)C)c3ccccc3n2)oc2ccccc12.Cl.Cl` [Compound 60, N^1,N^1-Dimethyl-N^3-[2-(3-methyl-1-benzofuran-2-yl)-4-quinazolinyl]-1,3-propanediamine dihydrochloride], which AC50 ([1]; Homo sapiens) is on record?
A: The AC50 was 18 µM.

Q: And the Activity [1]?
A: The Activity was “Active”.

Reference: patent US20090318479A1, “SUBSTITUTED RING FUSED AZINES AND THEIR USE IN CANCER THERAPY” (Auckland Uniservices Limited, priority 2006, published 2009)
